# Experimental data reported in the Kinase Knowledgebase extract (Sharma et al. 2016).
# Columns and labels:
# CDK2 (human) [1] = target: CDK2 (human) (UniProt P24941); experiment: Enzyme Assay
# CDK2 (human) [2] = target: CDK2 (human) (UniProt P24941); experiment: Enzyme Assay; remark: listed apart in the source
# EGFR (human) [3] = target: EGFR (human) (UniProt P00533); experiment: Assessment of EGFR Kinase Activity
# [4] = target: PIK3CD (Human), O00329 [Inhibition of PIK3CG Kinase Activity]; experiment: Enzyme Assay
# CDK2 [5] = target: CDK2 (UniProt P24941); experiment: Enzyme Assay
# CDK2 [6] = target: CDK2 (UniProt P24941); experiment: Enzyme Assay; remark: listed apart in the source
# [7] = target: PIK3CA (human), P42336 [Wild-Type]; experiment: Assessment of Proliferation of NZB5 Cells Expressing Wild-Type PIK3CA Kinase
# [8] = target: PIK3CA (human), P42336 [Assessment of Proliferation of NZOV9 Cells Expressing PIK3CA (Mutant) Kinase]; experiment: Assessment of Proliferation of NZOV9 Cells Expressing PIK3CA (Mutant) Kinase
# EGFR (human) [9] = target: EGFR (human) (UniProt P00533)
# MAPK14 (rat) [10] = settings: dose or concentration not given here
# MAPK14 [11] = target: MAPK14 (UniProt Q16539)
# EGFR (human) [12] = target: EGFR (human) (UniProt P00533); settings: A431; concentration not given here
# EGFR (human) [13] = target: EGFR (human) (UniProt P00533); settings: A431
# EGFR (Hamster) = EGFR (Hamster) (UniProt P00533); settings: er22
# MAPK14 [14] = target: MAPK14 (UniProt Q16539); experiment: p38 Kinase Inhibition
# MAPK14 (human) = MAPK14 (human) (UniProt Q16539); experiment: p38-mediated TNF-alpha Inhibition (THP1 Cells)
# [15] = test system: MAPK14 (sprague-dawley rat); experiment: p38-mediated TNF-alpha Inhibition (Sprauge-Dawley Rats); settings: dose or concentration not given here
# ROCK2 (human) [16] = target: ROCK2 (human) (UniProt O75116); experiment: Assessment of ROCK2 Kinase Activity using Luciferin-Luciferase Assay
# ROCK2 (human) [17] = target: ROCK2 (human) (UniProt O75116); experiment: Assessment of ROCK2 Kinase Activity using IMAP Assay
# MAPK14 (rat) [18] = experiment: p38-alpha Inhibition (Collagen-Induced Arthritis)
# EGFR (human) [19] = target: EGFR (human) (UniProt P00533); settings: A431 epidermoid carcinoma
# PIK3CG (human) [20] = target: PIK3CG (human) (UniProt P48736); experiment: Inhibition of PIK3CG Kinase Activity
# PIK3CD (Human) [21] = target: PIK3CD (Human) (UniProt O00329); experiment: Inhibition of PIK3CD Kinase Activity
# PIK3CB (Human) [22] = target: PIK3CB (Human) (UniProt P42338); experiment: Inhibition of PIK3CB Kinase Activity
# PIK3CD (Human) [23] = target: PIK3CD (Human) (UniProt O00329); experiment: Cellular Inhibition of PIK3CD Kinase in Raji (Burkitt’s Lymphoma) Cells
# EGFR [24] = target: EGFR (UniProt P00533)
# [25] = target: EGFR (human), P00533 [WT]
# [26] = target: EGFR (human), P00533 [WT]; remark: listed apart in the source
# [27] = target: EGFR (human), P00533 [WT]; remark: listed apart in the source
# [28] = target: EGFR (human), P00533 [WT]; remark: listed apart in the source
# PIK3CA (human) = PIK3CA (human) (UniProt P42336); experiment: Enzyme Assay
# PIK3CB (Human) [29] = target: PIK3CB (Human) (UniProt P42338); experiment: Enzyme Assay
# PIK3CG (human) [30] = target: PIK3CG (human) (UniProt P48736); experiment: Enzyme Assay
# CDK2 (human) [31] = target: CDK2 (human) (UniProt P24941); experiment: Enzyme Assay; remark: listed apart in the source
# CDK2 (human) [32] = target: CDK2 (human) (UniProt P24941); experiment: Enzyme Assay; remark: listed apart in the source
# EGFR [33] = target: EGFR (UniProt P00533); remark: listed apart in the source
# [34] = target: EGFR (human), P00533 [T790M]; settings: h1975
# EGFR [35] = target: EGFR (UniProt P00533); remark: listed apart in the source
# Chain of EGFR (P00533 whole entry, looked up): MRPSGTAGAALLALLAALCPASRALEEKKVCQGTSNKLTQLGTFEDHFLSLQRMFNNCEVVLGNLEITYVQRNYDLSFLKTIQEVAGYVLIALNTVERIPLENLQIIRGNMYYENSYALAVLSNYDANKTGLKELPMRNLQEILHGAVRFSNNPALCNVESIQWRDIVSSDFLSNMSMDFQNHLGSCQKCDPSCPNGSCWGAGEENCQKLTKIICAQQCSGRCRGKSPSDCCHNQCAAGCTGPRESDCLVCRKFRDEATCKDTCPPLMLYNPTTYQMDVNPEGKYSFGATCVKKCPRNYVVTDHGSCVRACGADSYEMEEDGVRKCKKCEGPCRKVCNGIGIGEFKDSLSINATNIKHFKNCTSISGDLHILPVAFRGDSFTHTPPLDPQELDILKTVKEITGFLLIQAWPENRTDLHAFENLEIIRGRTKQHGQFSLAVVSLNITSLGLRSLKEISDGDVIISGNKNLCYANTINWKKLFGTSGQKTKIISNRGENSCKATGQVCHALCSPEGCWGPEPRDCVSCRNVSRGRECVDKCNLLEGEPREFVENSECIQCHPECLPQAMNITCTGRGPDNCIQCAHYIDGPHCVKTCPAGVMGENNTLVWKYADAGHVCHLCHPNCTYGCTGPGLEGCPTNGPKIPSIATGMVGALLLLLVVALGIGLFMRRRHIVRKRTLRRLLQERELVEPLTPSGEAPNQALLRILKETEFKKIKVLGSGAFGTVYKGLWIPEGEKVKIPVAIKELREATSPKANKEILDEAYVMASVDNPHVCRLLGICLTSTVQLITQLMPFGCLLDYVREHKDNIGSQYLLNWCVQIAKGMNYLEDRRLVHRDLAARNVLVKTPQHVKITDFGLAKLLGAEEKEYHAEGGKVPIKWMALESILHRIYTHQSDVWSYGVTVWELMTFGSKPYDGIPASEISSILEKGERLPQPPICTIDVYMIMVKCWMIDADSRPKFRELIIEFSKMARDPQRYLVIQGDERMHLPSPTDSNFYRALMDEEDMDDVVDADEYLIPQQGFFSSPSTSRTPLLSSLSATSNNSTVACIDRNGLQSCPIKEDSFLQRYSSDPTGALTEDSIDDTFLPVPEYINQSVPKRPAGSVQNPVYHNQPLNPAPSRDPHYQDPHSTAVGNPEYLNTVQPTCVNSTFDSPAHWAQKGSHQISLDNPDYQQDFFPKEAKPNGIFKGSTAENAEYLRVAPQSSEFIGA
# Chain of EGFR (human) (P00533 whole entry, looked up): as above
# Chain of EGFR (human), P00533 [WT] (P00533 whole entry, looked up): as above
# Chain of ROCK2 (human) (O75116 whole entry, looked up): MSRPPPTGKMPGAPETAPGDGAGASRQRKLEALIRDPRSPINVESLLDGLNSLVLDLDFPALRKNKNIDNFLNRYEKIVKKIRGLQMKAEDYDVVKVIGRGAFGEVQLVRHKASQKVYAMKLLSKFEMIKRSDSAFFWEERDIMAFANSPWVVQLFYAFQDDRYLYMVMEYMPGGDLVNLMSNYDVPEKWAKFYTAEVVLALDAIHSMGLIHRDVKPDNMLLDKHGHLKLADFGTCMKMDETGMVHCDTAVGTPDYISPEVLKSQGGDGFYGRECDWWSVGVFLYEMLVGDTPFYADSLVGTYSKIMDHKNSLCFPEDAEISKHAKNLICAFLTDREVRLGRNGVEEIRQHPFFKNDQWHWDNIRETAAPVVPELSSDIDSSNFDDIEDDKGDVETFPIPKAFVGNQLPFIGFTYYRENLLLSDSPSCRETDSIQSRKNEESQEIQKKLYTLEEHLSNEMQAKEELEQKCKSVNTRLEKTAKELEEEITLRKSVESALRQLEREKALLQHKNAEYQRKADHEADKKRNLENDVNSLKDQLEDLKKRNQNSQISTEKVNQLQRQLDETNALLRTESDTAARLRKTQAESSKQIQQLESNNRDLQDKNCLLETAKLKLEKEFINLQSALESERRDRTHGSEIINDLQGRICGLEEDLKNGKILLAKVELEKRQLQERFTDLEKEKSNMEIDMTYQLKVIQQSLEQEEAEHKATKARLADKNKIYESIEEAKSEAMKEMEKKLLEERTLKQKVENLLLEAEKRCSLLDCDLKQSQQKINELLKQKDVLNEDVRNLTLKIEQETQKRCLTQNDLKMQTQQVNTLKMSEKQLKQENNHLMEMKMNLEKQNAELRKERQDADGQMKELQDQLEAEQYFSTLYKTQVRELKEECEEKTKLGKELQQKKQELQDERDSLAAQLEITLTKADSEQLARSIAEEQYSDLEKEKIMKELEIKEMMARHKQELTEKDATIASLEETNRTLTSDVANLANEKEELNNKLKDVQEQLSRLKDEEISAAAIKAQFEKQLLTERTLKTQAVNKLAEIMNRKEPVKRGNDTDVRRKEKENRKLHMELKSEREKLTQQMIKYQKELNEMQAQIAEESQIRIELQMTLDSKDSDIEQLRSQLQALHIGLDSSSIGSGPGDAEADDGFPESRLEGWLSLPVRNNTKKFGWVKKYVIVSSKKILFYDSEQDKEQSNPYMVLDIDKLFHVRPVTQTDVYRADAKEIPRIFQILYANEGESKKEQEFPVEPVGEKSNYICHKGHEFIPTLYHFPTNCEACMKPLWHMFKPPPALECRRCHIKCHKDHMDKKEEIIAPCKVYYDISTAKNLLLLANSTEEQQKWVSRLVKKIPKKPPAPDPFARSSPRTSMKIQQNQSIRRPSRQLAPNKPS
structure (smiles),measurement,setting,value
O=C1Nc2ccc(Br)cc2/C1=C1/Nc2ccccc2C1=NO,IC50,CDK2 (human) [1],460 nM
same,IC50,CDK2 (human) [2],120 nM
same,IC50,EGFR (human) [3],> 100000 nM
CCN1CCN(CC(=O)Nc2ccc(-c3cccc4c(=O)cc(N5CCOCC5)oc34)c3sc4ccccc4c23)CC1,IC50,[4],< 1 nM
O=C1CN=C2C=NC(Nc3ccc(N4CCNCC4)cc3)=NC2N1C1CCCC1 (centres undefined),IC50,CDK2 [5],610 nM
same,IC50,CDK2 [6],180 nM
N#Cc1cccc2c1nc(C(F)F)n2-c1nc(N2CCOCC2)nc(N2CCOCC2)n1,IC50,[7],> 20000 nM
same,IC50,[8],> 20000 nM
O=C(NCCN1CCCC1)c1cc2n(c1)CCc1c(NC(=O)c3ccccc3Cl)n[nH]c1-2,IC50,EGFR (human) [9],7870 nM
COc1cc(N)nc2[nH]c(-c3ccc(F)cc3)c(-c3ccncc3)c12,inhibition,MAPK14 (rat) [10],97%
same,activity,MAPK14 [11],6 nM
Oc1cccc(-c2nc3ccc(O)cc3s2)c1,inhibition,EGFR (human) [12],4%
Nc1ccc2c(NCc3ccccc3)ncnc2c1,IC50,EGFR (human) [13],1250 nM
COC(=O)c1cc(NCc2cc(O)ccc2O)ccc1O,IC50,EGFR (Hamster),9000 nM
Nc1c(C(=O)c2cccc(NC=NO)c2)cnn1-c1ccc(F)cc1,IC50,MAPK14 [14],1450 nM
same,IC50,MAPK14 (human),170 nM
same,inhibition,[15],76%
CN1CCc2ccc(NC(=O)c3cccc(CNC(=O)c4ccc(-c5csnn5)cc4)c3)cc2C1,IC50,ROCK2 (human) [16],4.6 nM
same,IC50,ROCK2 (human) [17],4.6 nM
CN1CCC(O)(c2nc(-c3ccc(F)cc3)c(-c3ccncc3)o2)CC1,ED50,MAPK14 (rat) [18],20 mg/kg/day
Cn1c(SSc2c(C(=O)Nc3ccccc3)c3ccc(C(F)(F)F)cc3n2C)c(C(=O)Nc2ccccc2)c2cc(C(F)(F)F)ccc21,IC50,EGFR (human) [19],> 100000 nM
CC(C)(Cc1ccccc1Br)Nc1nc(N2CCOCC2)nc(-n2c(C(F)F)nc3ccccc32)n1,IC50,PIK3CG (human) [20],200 to 500 nM
same,IC50,PIK3CD (Human) [21],< 100 nM
same,IC50,PIK3CB (Human) [22],< 100 nM
same,IC50,PIK3CD (Human) [23],< 100 nM
Brc1cccc(Nc2ncnc3ccccc23)c1,IC50,EGFR [24],126 nM
same,IC50,[25],27 nM
COc1cccc(Nc2ccnc(Nc3cccc(OC)c3)n2)c1,IC50,[26],7700 nM
CN1CCN([C@H]2CC[C@H](n3nc(-c4ccc(Nc5nc6cccc(Cl)c6o5)cc4)c4c(N)ncnc43)CC2)CC1,IC50,[27],2 nM
COc1cc(N2CCN(C(C)=O)CC2)ccc1Nc1ncc(Cl)c(-c2c[nH]c3ccccc23)n1,IC50,[28],79 nM
CN1CCN(c2ccc(Nc3ncc4cc(C#N)c(=O)n(C5CCCC5)c4n3)cc2)CC1,IC50,CDK2 (human) [1],97.3 nM
same,IC50,PIK3CA (human),1060 nM
same,IC50,PIK3CB (Human) [29],759 nM
same,IC50,PIK3CG (human) [30],1120 nM
same,IC50,CDK2 (human) [31],770 nM
same,IC50,CDK2 (human) [32],1350 nM
O=C(O)CCC1C(=S)Nc2ccccc21 (centres undefined),IC50,EGFR [33],> 1620 nM
O=C(CCN1CCOCC1)Nc1ccc2ncnc(Nc3cccc(Br)c3)c2c1,IC50,[34],> 20000 nM
O=C(Nc1cccc(Nc2nccc(-c3cccnc3)n2)c1)c1ccccc1S,IC50,EGFR [35],> 50000 nM
